The record followed here is US20260138990A1, “TRICYCLIC FUSED IMIDAZOLE COMPOUNDS AS CD38 MODULATORS AND USES THEREOF” (AEOVIAN PHARMACEUTICALS, INC., priority 2023, published 2026).

The structures appear in SMILES notation. pIC50: −log10 of the molar value.

The target in one test is T1, human CD38 (Homo sapiens, UniProt P28907).
T1 construct: purchased Bio-Techne GmbH AVI2404
T1 sequence (P28907 1-300): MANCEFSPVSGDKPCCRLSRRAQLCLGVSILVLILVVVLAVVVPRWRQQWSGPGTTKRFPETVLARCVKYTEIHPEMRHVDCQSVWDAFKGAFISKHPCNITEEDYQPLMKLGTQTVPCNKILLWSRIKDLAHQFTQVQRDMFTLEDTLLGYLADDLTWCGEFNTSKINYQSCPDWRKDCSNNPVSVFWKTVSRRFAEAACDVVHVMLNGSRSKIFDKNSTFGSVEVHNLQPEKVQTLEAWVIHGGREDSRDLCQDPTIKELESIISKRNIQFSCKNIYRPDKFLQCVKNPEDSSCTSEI
Kind of test: NAD+ cyclase activity assay with human recombinant CD38 protein (ε-NAD fluorescence). The class given is biochemical. The following applies: 1.9 nM human CD38, substrate ε-NAD, 30 min preincubation, fluorescence 300/410 nm. A digest of the protocol:
(§1)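 Twelve-point threefold compound dilutions were given 30 min at room temperature with 0.6 nM mouse or 1.9 nM human CD38 before […] ε-NAD was added (pH 7.5 HEPES/sucrose/Tween buffer). The rate came from the linear-phase slope of ex 300/em 410 nm fluorescence against vehicle and no-CD38 controls.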

Another test concerns the target T2, mouse CD38 (Mus musculus, UniProt P56528).
T2 construct: purchased Bio-Techne GmbH 4947-AC
T2 sequence (P56528 1-304): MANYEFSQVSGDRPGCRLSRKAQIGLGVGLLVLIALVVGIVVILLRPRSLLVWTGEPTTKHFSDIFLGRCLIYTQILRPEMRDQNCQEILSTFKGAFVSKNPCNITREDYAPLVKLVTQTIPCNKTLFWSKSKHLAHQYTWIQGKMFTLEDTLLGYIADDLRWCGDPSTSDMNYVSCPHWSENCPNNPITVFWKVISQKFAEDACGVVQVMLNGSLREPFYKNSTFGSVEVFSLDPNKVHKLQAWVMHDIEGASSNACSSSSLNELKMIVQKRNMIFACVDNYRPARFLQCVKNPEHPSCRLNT
Nature of the test: NAD+ cyclase activity assay with mouse recombinant CD38 protein (ε-NAD fluorescence). The class given is biochemical. The conditions noted are these: 0.6 nM mouse CD38, substrate ε-NAD, 30 min preincubation, fluorescence 300/410 nm. A digest of the protocol:
as §1

As a reminder, the pIC50 is the negative decadic logarithm of the IC50, by convention in mol/L.

As for `O=C(Nc1ccc2ncsc2c1)c1ccc2c(c1)-c1cncn1CCO2` [Compound 41A, N-(Benzo[d]thiazol-6-yl)-5,6-dihydrobenzo[f]imidazo[1,5-d][1,4]oxazepine-10-carboxamide], the pIC50 was greater than 7.52 on human CD38 and 8.00 to 9.00 on mouse CD38.

As for `COCCO[C@H]1CC[C@H](NC(=O)c2cc(Br)c3c(c2)-c2cncn2CCO3)CC1` [Compound 46A, 8-Bromo-N-((1r,4r)-4-(2-methoxyethoxy)cyclohexyl)-5,6-dihydrobenzo[f]imidazo[1,5-d][1,4]oxazepine-10-carboxamide], the pIC50 at human CD38 is greater than 7.52; on mouse CD38, greater than 9.00.

For `COCCNc1nc2cc(NC(=O)c3ccc4c(c3)-c3cncn3CCO4)ccc2s1` [Compound 48A, N-(2-((2-Methoxyethyl)amino)benzo[d]thiazol-5-yl)-5,6-dihydrobenzo[f]imidazo[1,5-d][1,4]oxazepine-10-carboxamide], the values for the pIC50 on human CD38 and at mouse CD38 were greater than 7.52 and 8.00 to 9.00, respectively.

As to `CN(C)c1nc2cc(NC(=O)c3ccc4c(c3)-c3cncn3CCO4)ccc2s1` [Compound 49A, N-(2-(Dimethylamino)benzo[d]thiazol-5-yl)-5,6-dihydrobenzo[f]imidazo[1,5-d][1,4]oxazepine-10-carboxamide], the pIC50 at human CD38 is greater than 7.52; at mouse CD38, 7.00 to 8.00.

Take `COCCO[C@H]1CC[C@H](NC(=O)c2cc3c(c(C4CC4)c2)OCCn2cncc2-3)CC1` [Compound 50A, 8-Cyclopropyl-N-((1r,4r)-4-(2-methoxyethoxy)cyclohexyl)-5,6-dihydrobenzo[f]imidazo[1,5-d][1,4]oxazepine-10-carboxamide]: the pIC50 on human CD38 was 7.00 to 7.52; on mouse CD38, 8.00 to 9.00.

On to `CC1(C)COc2ccc(C(=O)N[C@@H]3CCCOC3)cc2-c2cncn21` [Compound 51A, (R)-5,5-Dimethyl-N-(tetrahydro-2H-pyran-3-yl)-5,6-dihydrobenzo[f]imidazo[1,5-d][1,4]oxazepine-10-carboxamide], for which the figures for the pIC50 at human CD38 and on mouse CD38 were less than 6.00 and less than 7.00, respectively.

For `O=C(N[C@H]1CC[C@H](C(F)(F)F)CC1)c1ccc2c(c1)-c1cncn1CCO2` [Compound 52A, N-((1r,4r)-4-(Trifluoromethyl)cyclohexyl)-5,6-dihydrobenzo[f]imidazo[1,5-d][1,4]oxazepine-10-carboxamide], the pIC50 on human CD38 was greater than 7.52; on mouse CD38, 8.00 to 9.00.

Turning to `COCCO[C@H]1CC[C@H](NC(=O)c2cc(C)c3c(c2)-c2cncn2CCO3)CC1` [Compound 53A, N-((1r,4r)-4-(2-Methoxyethoxy)cyclohexyl)-8-methyl-5,6-dihydrobenzo[f]imidazo[1,5-d][1,4]oxazepine-10-carboxamide], the pIC50 at human CD38 is greater than 7.52; at mouse CD38, greater than 9.00.

`COCCO[C@H]1CC[C@H](NC(=O)c2cc(OC)c3c(c2)-c2cncn2CCO3)CC1` [Compound 54A, 8-Methoxy-N-((1r,4r)-4-(2-methoxyethoxy)cyclohexyl)-5,6-dihydrobenzo[f]imidazo[1,5-d][1,4]oxazepine-10-carboxamide]: the results for the pIC50 on human CD38 and at mouse CD38 were greater than 7.52 and 8.00 to 9.00, respectively.

As for `COCCO[C@H]1CC[C@H](NC(=O)c2cc3c(c(C(F)(F)F)c2)OCCn2cncc2-3)CC1` [Compound 55A, N-((1r,4r)-4-(2-Methoxyethoxy)cyclohexyl)-8-(trifluoromethyl)-5,6-dihydrobenzo[f]imidazo[1,5-d][1,4]oxazepine-10-carboxamide], the pIC50 was 7.00 to 7.52 at human CD38 and greater than 9.00 on mouse CD38.

Take `O=C(N[C@H]1CC[C@H](CCO)CC1)c1ccc2c(c1)-c1cncn1CCO2` [Compound 56A, N-((1r,4r)-4-(2-Hydroxyethyl)cyclohexyl)-5,6-dihydrobenzo[f]imidazo[1,5-d][1,4]oxazepine-10-carboxamide]: the figures for the pIC50 at human CD38 and on mouse CD38 were greater than 7.52 and 8.00 to 9.00, respectively.

For `COCCO[C@H]1CC[C@H](NC(=O)c2cc(F)c3c(c2)-c2cncn2CCO3)CC1` [Compound 57A, 8-Fluoro-N-((1r,4r)-4-(2-methoxyethoxy)cyclohexyl)-5,6-dihydrobenzo[f]imidazo[1,5-d][1,4]oxazepine-10-carboxamide], the pIC50 was greater than 7.52 at human CD38 and greater than 9.00 at mouse CD38.

Regarding `CC(C)(O)[C@H]1CC[C@H](NC(=O)c2ccc3c(c2)-c2cncn2CCO3)CC1` [Compound 58A, N-((1r,4r)-4-(2-Hydroxypropan-2-yl)cyclohexyl)-5,6-dihydrobenzo[f]imidazo[1,5-d][1,4]oxazepine-10-carboxamide], the negative-log IC50 (pIC50) was greater than 7.52 at human CD38 and greater than 9.00 on mouse CD38.

`COCCNC(=O)[C@H]1CC[C@H](NC(=O)c2ccc3c(c2)-c2cncn2CCO3)CC1` [Compound 59A, N-((1r,4r)-4-((2-Methoxyethyl)carbamoyl)cyclohexyl)-5,6-dihydrobenzo[f]imidazo[1,5-d][1,4]oxazepine-10-carboxamide]: the negative logarithm of the IC50 (pIC50) is greater than 7.52 at human CD38 and 8.00 to 9.00 at mouse CD38.

With `CC(=O)N[C@H]1CC[C@H](NC(=O)c2ccc3c(c2)-c2cncn2CCO3)CC1` [Compound 60A, N-((1r,4r)-4-Acetamidocyclohexyl)-5,6-dihydrobenzo[f]imidazo[1,5-d][1,4]oxazepine-10-carboxamide], the pIC50 on human CD38 is 6.00 to 7.00; on mouse CD38, 8.00 to 9.00.

For the molecule `O=C(N[C@H]1CC[C@H](C(=O)NCC(F)(F)F)CC1)c1ccc2c(c1)-c1cncn1CCO2` [Compound 61A, N-((1r,4r)-4-((2,2,2-Trifluoroethyl)carbamoyl)cyclohexyl)-5,6-dihydrobenzo[f]imidazo[1,5-d][1,4]oxazepine-10-carboxamide], the pIC50 is greater than 7.52 at human CD38 and greater than 9.00 at mouse CD38.

`O=C(N[C@H]1CC[C@H](NCC(F)(F)F)CC1)c1ccc2c(c1)-c1cncn1CCO2` [Compound 62A, N-((1r,4r)-4-((2,2,2-Trifluoroethyl)amino)cyclohexyl)-5,6-dihydrobenzo[f]imidazo[1,5-d][1,4]oxazepine-10-carboxamide]: the negative logarithm of the IC50 (pIC50) at human CD38 was greater than 7.52; on mouse CD38 it was 8.00 to 9.00.

In the case of `O=C(N[C@H]1CC[C@H](NCC(F)F)CC1)c1ccc2c(c1)-c1cncn1CCO2` [Compound 63A, N-((1r,4r)-4-((2,2-Difluoroethyl)amino)cyclohexyl)-5,6-dihydrobenzo[f]imidazo[1,5-d][1,4]oxazepine-10-carboxamide], the pIC50 at human CD38 is greater than 7.52; on mouse CD38 it was 8.00 to 9.00.

Regarding `O=C(N[C@H]1CC[C@@H](N2CC(F)(F)C2)CC1)c1ccc2c(c1)-c1cncn1CCO2` [Compound 64A, N-((1s,4s)-4-(3,3-Difluoroazetidin-1-yl)cyclohexyl)-5,6-dihydrobenzo[f]imidazo[1,5-d][1,4]oxazepine-10-carboxamide], the pIC50 is 6.00 to 7.00 at human CD38 and 7.00 to 8.00 on mouse CD38.

As to `O=C(N[C@H]1CC[C@H](CO)CC1)c1ccc2c(c1)-c1cncn1CCO2` [Compound 65A, N-((1r,4r)-4-(Hydroxymethyl)cyclohexyl)-5,6-dihydrobenzo[f]imidazo[1,5-d][1,4]oxazepine-10-carboxamide], the negative-log IC50 (pIC50) on human CD38 was greater than 7.52; at mouse CD38, greater than 9.00.

With `O=C(NC1CCC(F)(F)C1)c1ccc2c(c1)-c1cncn1CCO2` (centres unmarked) [Compound 66A, N-(3,3-Difluorocyclopentyl)-5,6-dihydrobenzo[f]imidazo[1,5-d][1,4]oxazepine-10-carboxamide], the pIC50 at human CD38 is greater than 7.52; at mouse CD38 it was greater than 9.00.

`COCCC(=O)N[C@H]1CC[C@H](NC(=O)c2ccc3c(c2)-c2cncn2CCO3)CC1` [Compound 67A, N-((1r,4r)-4-(3-Methoxypropanamido)cyclohexyl)-5,6-dihydrobenzo[f]imidazo[1,5-d][1,4]oxazepine-10-carboxamide]: the negative logarithm of the IC50 (pIC50) is 6.00 to 7.00 on human CD38 and 8.00 to 9.00 on mouse CD38.

With `CC1COc2ccc(C(=O)N[C@@H]3CCCOC3)cc2-c2cncn21` (stereo partly drawn) [Compound 68A, 5-Methyl-N—((R)-tetrahydro-2H-pyran-3-yl)-5,6-dihydrobenzo[f]imidazo[1,5-d][1,4]oxazepine-10-carboxamide], the results for the pIC50 at human CD38 and at mouse CD38 were 6.00 to 7.00 and 7.00 to 8.00, respectively.

`O=C(N[C@H]1CC[C@@H](N2CCC(F)(F)C2)CC1)c1ccc2c(c1)-c1cncn1CCO2` [Compound 69A, N-((1s,4s)-4-(3,3-Difluoropyrrolidin-1-yl)cyclohexyl)-5,6-dihydrobenzo[f]imidazo[1,5-d][1,4]oxazepine-10-carboxamide]: the pIC50 was 6.00 to 7.00 at human CD38 and 7.00 to 8.00 on mouse CD38.

`COCCO[C@H]1CC[C@H](NC(=O)c2ccc3c(n2)-n2cncc2CCO3)CC1` [Compound 70A, N-((1r,4r)-4-(2-Methoxyethoxy)cyclohexyl)-6,7-dihydroimidazo[1,5-d]pyrido[3,2-b][1,4]oxazepine-2-carboxamide]: the pIC50 is 6.00 to 7.00 at human CD38 and 7.00 to 8.00 on mouse CD38.
